Laboratory results reported in article PMC4265539, “Inhibition of Neutrophil Collagenase/MMP-8 and Gelatinase B/MMP-9 and Protection against Endotoxin Shock” (Journal of Immunology Research, 2014).
Read-outs that look alike come from different tables or passages of the source. Non-standard residues stand in square brackets, D forms with d. Residues, ends and D or L forms follow the SMILES beside them. No end group written: not given here. Bip = N[C@@H](Cc1ccc(-c2ccccc2)cc1)C(=O)O; d3Pal = N[C@H](Cc1cccnc1)C(=O)O

What was measured:
MMP-9 = settings: cited from earlier work
Excerpt: Table 1 Peptide sequences and their IC50 values in μM against target enzymes. | column: MMP-9

TACE = settings: cited from earlier work
Excerpt: Table 1 Peptide sequences and their IC50 values in μM against target enzymes. | column: TACE

[1] = mouse, in vivo, ip, 150 mg/kg
Description: (§2) The concentration of P2-BSA that was used to coat the plates and the reagent concentration of the P2-specific polyclonal antibody were optimized by two-dimensional serial dilution tests. 96-well microtiter plates were coated with a solution of 6 μg/mL P2-BSA in 0.05 M sodium bicarbonate (pH 9.6) and the plate was kept overnight at 4°C. After washing the plate three times, the plate was blocked with 0.1 M PBS (pH 7.4) containing 10% (V/V) skim milk at 37°C for 1.5 h. To perform the competition ELISA between P2 and the immobilized P2-BSA, P2-specific antibody (1000 times serum dilution) was added to the wells in the presence of plasma or standard samples at 37°C for 1.5 h. After washing the plate three times, 100 μL of horseradish peroxidase-conjugated goat anti-rabbit IgG (1 : 2000) was added and incubated for 1 h at 37°C. After washing three times, the tetramethylbenzidine (TMB) substrate (100 μL/well) was added and the reaction was executed for 15 min. The reactions were stopped with 2 M sulfuric acid (50 μL/well). The absorbance of each well at 450 nm was detected with an automated ELISA reader. The calibration curve was expressed according to the fact that 1-B/B0 are linear with log C (where B0 is the OD value in the absence of P2 in plasma, B is the OD value at serial concentrations of P2 in plasma, and C is the P2 concentration, resp.). The indirect ELISA procedures were conducted in duplicate with a set of standard concentrations of P2 in diluted mouse serum in order to determine the mathematical fitting equation and linear detection range.
(§3) Adult female Swiss mice, 5 animals per group, were used for the pharmacokinetic studies. P2 (90 mg/kg, 30 mg/kg, or 10 mg/kg) was dissolved in sterile 0.9% saline and was administered intravenously. Blood samples were collected through the canthus at 0, 3, 6, 9, 12, 15, and 30 min. For intraperitoneal injection of P2, 150 mg/kg P2 dissolved in 0.9% saline was administered and blood samples were collected through the canthus at 0, 13, 20, 40, 68, 100, 127, and 168 minutes.
(§4) Blood samples were immediately centrifuged (12000 rpm for 30 seconds), and the supernatants were taken and diluted 10, 30, or 300 times with PBS, prewarmed at 80°C in a water bath. The diluted samples were kept at 80°C for another 30 min to remove enzyme activity of the plasma components. Samples were diluted with prewarmed PBS so that the final concentration of P2 was within the linear range of the standard line. After another centrifugation (12000 rpm for 2 min), the diluted samples were analyzed by ELISA to measure the plasma P2 concentrations.

[2] = tested on: Swiss mice, LPS endotoxin shock; experiment: Endotoxin shock mouse model, survival after LPS challenge; format: in vivo
Description: (§1) The protective effect of all inhibitors was evaluated in a similar way. P2 (90 mg/kg P2) was used at a similar molar concentration as Regasepin 2. The effect of lower dosages of P2 (30 mg/kg and 10 mg/kg) was also evaluated in parallel experiments. The details of the animal experiments, including grouping of mice, number of mice in each group, reagent concentrations, and ways of administration, are shown in Table 2. The peptides were administered intravenously 5 minutes after LPS injection.
The protective effects via intravenous injection were evaluated in groups of 6 mice, intravenously injected with 100 μL (7 mg/mL; 35 mg/kg) Regasepin 2 or Inhibitor 2 (35 mg/kg) 5 minutes after intravenous injection of LPS (200 μg per mouse). The numbers of surviving mice were recorded regularly after LPS administration. Kaplan-Meier survival curves were generated. P values were calculated compared with the survival rates of the negative control group. The experiments were performed two times.
Regasepin 2 via intravenous injection (35 mg/kg) was used as a positive control peptide. 200 μL P2 (15 mg/mL) was administered intraperitoneally (150 mg/kg) 30, 60, or 90 minutes before intravenous LPS challenge (200 μg per mouse) to evaluate the effect of P2 via this administration route. The protective effects of a single intravenous injection of P2 (10 mg/kg) and two times intravenous administration of P2 (10 mg/kg) with 2 hours interval were also included and compared.
Results were represented as mean ± SD. Statistical significance was assessed using statistics software SPSS13.0. Two-way analysis of variance (ANOVA) was used to test for differences between groups. For all statistical comparisons, positive groups were compared with negative controls, and ^* P < 0.05 or ^** P < 0.01 were considered statistically significant.

[3] = mouse, in vivo
Description: as §2, §3, §4

MMP-8 = settings: cited from earlier work
Excerpt: Table 1 Peptide sequences and their IC50 values in μM against target enzymes. | column: MMP-8

[4] = rat; cited from earlier work
Description: The pharmacokinetics of P2 by intraperitoneal injection was also investigated.

[5] = tested on: Swiss mice, LPS endotoxin shock; settings: 100 μL (7 mg/mL), 35 mg/kg iv 5 minutes after iv LPS, ref [9]; cited from earlier work
Description: as §1, with “ea ...” for “each group, reagent concentrations, and ways of administration, are shown in Table 2. The peptides were administered intravenously 5 minutes after LPS injection.”

CC[C@H](C)[C@H](NC(=O)CNC(=O)CNC(=O)CNC(=O)CNC(=O)[C@H](CCC(=O)O)NC(=O)CNC(=O)[C@H](CCCNC(=N)N)NC(=O)[C@H](Cc1ccc(-c2ccccc2)cc1)NC(=O)[C@@H](CS)NC(=O)[C@@H](Cc1cccnc1)NC(=O)[C@@H]1CCCN1)C(=O)N[C@H](C(=O)N[C@@H](CCCNC(=N)N)C(=O)N[C@@H](CCCNC(=N)N)C(=O)N[C@@H](C)C(=O)N[C@@H](CC(=O)O)C(=O)N[C@@H](CCCNC(=N)N)C(=O)N[C@@H](C)C(=O)N[C@@H](C)C(=O)N[C@H](C(=O)N1CCC[C@H]1C(=O)O)C(C)C)C(C)C [P2] (H-P[d3Pal][dC][Bip]RGEGGGGIVRRADRAAVP-OH; N-terminus and C-terminus assumed)
IC50 (MMP-9; ref [10]): 1360 nM | IC50 (TACE; ref [10]): 1950 nM | level at time molar at 100 min [1]: 1540 nM | Survival after two injections (G3) versus single injection (G2) ([2]; 10 mg/kg iv 5 minutes after LPS iv and again 2 hours later, n = 12, Figure 4(a) G3): less mice survived | Survival versus LPS-treated control group ([2]; single 10 mg/kg iv 5 minutes after LPS iv, n = 12, Figure 4(a) G2): significant difference with the LPS-treated control group | Time at which the peak plasma level was reached ([3]; ip, 150 mg/kg): ≤ 13 min | Time an effective P2 concentration (above 2 μM) remained in plasma ([3]; iv, 10 mg/kg): 6 min | Time the effective plasma concentration of P2 lasted ([3]; iv, 90 mg/kg): less than 30 minutes | IC50 (MMP-8; ref [10]): 350 nM

IVRRADRAAVP [ES-2]
IC50 (MMP-9; ref [10]): > 500000 nM | IC50 (TACE; ref [10]): > 500000 nM | IC50 (MMP-8; ref [10]): > 500000 nM

IVRRADRAAVPGGGGRGD [HM-3]
in vivo half-life [4]: 27 min

PRC[Bip]CGE (cysteine pairing not given here) [Regasepin 1]
IC50 (MMP-9; ref [8]): 1500 nM | IC50 (TACE; ref [8]): 5000 nM | IC50 (MMP-8; ref [8]): 3000 nM

Pro-(D-Pyr)-(D-Cys)-Bip-Arg-Gly-Glu [Inhibitor 2]
IC50 (MMP-9; ref [11]): 2750 nM | IC50 (TACE; ref [11]): 5500 nM | IC50 (MMP-8; ref [11]): 800 nM

Pro-Pyr-Cys-Bip-Arg-Gly-Glu [Regasepin 2]
IC50 (MMP-9; ref [9]): 800 nM | IC50 (TACE; ref [9]): 1500 nM | Protective effect (survival), positive control ([2]; 35 mg/kg iv 5 minutes after LPS iv, n = 12, Figures 4(b)-4(d)): significant protective effect | IC50 (MMP-8; ref [9]): 10000 nM | Protection from endotoxin shock [5]: protect mice from endotoxin shock
